Laboratory results published in patent US7138361B2, “Herbicidal heterocycles” (E. I. du Pont de Nemours and Company, priority 2000, dated 2006).

Assays:
Type in all cases: in vivo
[1] = tested on: barnyardgrass (Echinochloa crus-galli); test: Test C flooded paddy test; conditions: for Barnyardgrass plant response rating: Flooded Paddy, scale 0 to 100, 0 no effect, 100 complete control; for Plant response rating, Barnyardgrass: flooded paddy test, scale 0 to 100 (0 no effect, 100 complete control)
In short: (§1)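 Greenhouse-maintained for 12 to 14 days after treatment, the paddy plants (2-leaf stage at application) were scored visually against controls. A score of 0 denotes no effect and a score of 100 denotes complete control.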

[2] = tested on: duck salad (Heteranthera limosa); test: Test C flooded paddy test; conditions: for Ducksalad plant response rating: Flooded Paddy, scale 0 to 100, 0 no effect, 100 complete control; for Plant response rating, Ducksalad: flooded paddy test, scale 0 to 100 (0 no effect, 100 complete control)
In short: as §1

[3] = tested on: smallflower flatsedge (Cyperus difformis); test: Test C flooded paddy test; conditions: for Flatsedge plant response rating: Flooded Paddy, scale 0 to 100, 0 no effect, 100 complete control; for Plant response rating, Flatsedge: flooded paddy test, scale 0 to 100 (0 no effect, 100 complete control)
In short: as §1

[4] = tested on: cocklebur (Xanthium strumarium); test: Test C preemergence
In short: (§2)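 Visual injury scores of 0–100, with 100 meaning complete control, were given relative to controls after 12–14 days in the greenhouse. Treatments used a surfactant-containing non-phytotoxic solvent formulation, sprayed on seeded pots preemergence or on 1–4-leaf plants of 2–18 cm postemergence.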

[5] = tested on: crabgrass (Digitaria sanguinalis); test: Test C preemergence
In short: as §2

[6] = tested on: bermudagrass (Cynodon dactylon); test: Test C preemergence
In short: as §2

soybean (Glycine max) = test: Test C preemergence
In short: as §2

[7] = tested on: Surinam grass (Brachiaria decumbens); test: Test C preemergence
In short: as §2

corn (Zea mays) = test: Test C preemergence
In short: as §2

[8] = tested on: yellow nutsedge (Cyperus esculentus); test: Test C preemergence
In short: as §2

kochia (Kochia scoparia) = test: Test C preemergence
In short: as §2

[9] = tested on: goosegrass (Eleusine indica); test: Test C preemergence
In short: as §2

Nightshade = test: Test C preemergence
[10] = tested on: velvetleaf (Abutilon theophrasti); test: Test C preemergence
In short: as §2

[11] = tested on: lambsquarters (Chenopodium album); test: Test C preemergence
In short: as §2

[12] = tested on: woolly cupgrass (Eriochloa villosa); test: Test C preemergence
In short: as §2

[13] = tested on: giant foxtail (Setaria faberii); test: Test C preemergence
In short: as §2

Sunflower [14] = test: Test C preemergence; conditions: Rate 500 g/ha, scale 0 to 100
[15] = tested on: morningglory (Ipomoea hederacea); test: Test C preemergence
In short: as §2

[16] = tested on: pigweed (Amaranthus retroflexus); test: Test C preemergence
In short: as §2

[17] = tested on: johnsongrass (Sorghum halepense); test: Test C preemergence
In short: as §2

Sunflower [18] = test: Test C preemergence; conditions: Rate 250 g/ha, visual evaluation after 12 to 14 days
[19] = Preemergence, Rate 500 g/ha, scale 0 to 100
[20] = Rate 62 g/ha, scale 0 to 100, 0 no effect, 100 complete control
[21] = preemergence, Rate 250 g/ha, visual evaluation after 12 to 14 days
[22] = preemergence, Rate 125 g/ha, scale 0 to 100, 0 no effect, 100 complete control

Structure (SMILES): CC(C)(C)c1ccn(C2CCN(c3ccc(Cl)c(Br)c3)C2=O)n1 (centres unmarked) [Compound 56]
- Barnyardgrass plant response rating ([1]; Rate 250 g/ha): 30
- Barnyardgrass plant response rating ([1]; Rate 500 g/ha): 30
- Plant response rating, Barnyardgrass ([1]; Rate 62 g/ha): 0
- Plant response rating, Barnyardgrass ([1]; Rate 125 g/ha): 30
- Ducksalad plant response rating ([2]; Rate 250 g/ha): 0
- Ducksalad plant response rating ([2]; Rate 500 g/ha): 0
- Plant response rating, Ducksalad ([2]; Rate 62 g/ha): 0
- Plant response rating, Ducksalad ([2]; Rate 125 g/ha): 0
- Flatsedge plant response rating ([3]; Rate 250 g/ha): 90
- Flatsedge plant response rating ([3]; Rate 500 g/ha): 90
- Plant response rating, Flatsedge ([3]; Rate 62 g/ha): 80
- Plant response rating, Flatsedge ([3]; Rate 125 g/ha): 80
- Plant response rating, Cocklebur [4, 19]: 100
- Plant response rating, Cocklebur [4, 20]: 0
- Plant response rating (0 to 100), Cocklebur [4, 21]: 0
- Plant response rating, Cocklebur [4, 22]: 0
- Plant response rating, Crabgrass [5, 19]: 100
- Plant response rating, Crabgrass [5, 20]: 30
- Plant response rating (0 to 100), Crabgrass [5, 21]: 90
- Plant response rating, Crabgrass [5, 22]: 30
- Plant response rating, Bermudagrass [6, 19]: 100
- Plant response rating, Bermudagrass [6, 20]: 40
- Plant response rating (0 to 100 where 0 is no effect and 100 is complete control), Bermudagrass [6, 21]: 90
- Plant response rating, Bermudagrass [6, 22]: 50
- Plant response rating, Soybean (soybean (Glycine max); [19]): 0
- Plant response rating (0 to 100), Soybean (soybean (Glycine max); [21]): 0
- Plant response rating, Soybean (soybean (Glycine max); [22]): 0
- Plant response rating, Surinam grass [7, 19]: 0
- Plant response rating, Surinam grass [7, 20]: 0
- Plant response rating (0 to 100), Surinam grass [7, 21]: 0
- Plant response rating, Surinam grass [7, 22]: 0
- Plant response rating, Corn (corn (Zea mays); [19]): 0
- Plant response rating, Corn (corn (Zea mays); [20]): 0
- Plant response rating (0 to 100), Corn (corn (Zea mays); [21]): 0
- Plant response rating, Corn (corn (Zea mays); [22]): 0
- Plant response rating, Nutsedge [8, 19]: 0
- Plant response rating, Nutsedge [8, 20]: 0
- Plant response rating (0 to 100), Nutsedge [8, 21]: 0
- Plant response rating, Nutsedge [8, 22]: 0
- Plant response rating, Kochia (kochia (Kochia scoparia); [19]): 100
- Plant response rating, Kochia (kochia (Kochia scoparia); [20]): 50
- Plant response rating (0 to 100), Kochia (kochia (Kochia scoparia); [21]): 100
- Plant response rating, Kochia (kochia (Kochia scoparia); [22]): 70
- Plant response rating, Goosegrass [9, 19]: 100
- Plant response rating, Goosegrass [9, 20]: 60
- Plant response rating (0 to 100), Goosegrass [9, 21]: 90
- Plant response rating, Goosegrass [9, 22]: 80
- Plant response rating, Nightshade (Nightshade; [20]): 0
- Plant response rating, Nightshade (Nightshade; Rate 125 g/ha, scale 0 to 100, 0 no effect, 100 complete control): 0
- Plant response rating, Nightshade (Nightshade; Rate 500 g/ha, scale 0 to 100): 20
- Plant response rating, Velvetleaf [10, 19]: 20
- Plant response rating (0 to 100), Velvetleaf [10, 21]: 0
- Plant response rating, Velvetleaf [10, 22]: 0
- Plant response rating, Lambsquarters [11, 19]: 100
- Plant response rating, Lambsquarters [11, 20]: 100
- Plant response rating (0 to 100), Lambsquarters [11, 21]: 100
- Plant response rating, Lambsquarters [11, 22]: 100
- Plant response rating, Cupgrass, Woolly [12, 19]: 70
- Plant response rating, Cupgrass, Woolly [12, 20]: 0
- Plant response rating (0 to 100), Cupgrass, Woolly [12, 21]: 0
- Plant response rating, Cupgrass, Woolly [12, 22]: 0
- Plant response rating, Foxtail, Giant [13, 19]: 90
- Plant response rating, Foxtail, Giant [13, 20]: 0
- Plant response rating, Foxtail, Giant [13, 22]: 0
- Plant response rating, Sunflower (Sunflower [14]): 0
- Plant response rating, Morningglory [15, 19]: 0
- Plant response rating, Morningglory [15, 20]: 0
- Plant response rating (0 to 100), Morningglory [15, 21]: 0
- Plant response rating, Morningglory [15, 22]: 0
- Plant response rating, Pigweed [16, 19]: 100
- Plant response rating (0 to 100), Pigweed [16, 21]: 0
- Plant response rating, Pigweed [16, 22]: 90
- Plant response rating, Johnsongrass [17, 19]: 0
- Plant response rating, Johnsongrass [17, 20]: 0
- Plant response rating (0 to 100), Johnsongrass [17, 21]: 0
- Plant response rating, Johnsongrass [17, 22]: 0
- Plant response rating (0 to 100), Sunflower (Sunflower [18]): 0
